Experimental data reported in US9669028B2, “Substituted 5-(pyrazin-2-yl)-1H-pyrazolo [3, 4-B] pyridine and pyrazolo [3, 4-B] pyridine derivatives as protein kinase inhibitors” (Arrien Pharmaceuticals LLC, priority 2011, dated 2017).
pIC50: −log10 of the molar value. Converted amounts (≈) assume the structure as drawn. “And” between values parts separate entries of the source, which are not always exact repeats. Equal entries are not always repeated.

Tests used:
[1] = tested on: MPTP-injected C57 black mice; test: MPTP mouse model, post-treatment study; type: in vivo; details: post-administration, oral and i.v routes
Experimental: (§1) 32 C57 black mice (C57/bl6, 6-8 week old, 25-30 g) were purchased from Charles River Laboratories, Ohio. […] All animals were housed in Laboratory of Animal Resources vivarium at Iowa State University under standard conditions: constant temperature (22±1° C.), humidity (relative, 30%), and a 12-h light/dark cycle. Mice were allowed free access to food and water. Use of the animals and protocol procedures were approved and supervised by the Committee on Animal Care at Iowa State University (Ames, Iowa). Test compounds were dissolved in PBS for this study. Prior to treatment animals were pre-trained on rotarod for at least 3 minutes every day for three successive days. Group A animals were injected with saline (i.p.) to be used as controls. MPTP was dissolved in PBS and injected intraperitoneally (i.p.) at doses of 25 mg/kg, once daily for 5 days to group B, C and D animals. On day 4, prior to 4th MPTP injection, group C animals received test compounds (30 mg/kg, oral) daily for eight days. Similarly, on day 4, prior to 4th MPTP injection, group D animals received test compounds (5 mg/kg, i.v) daily for eight days. On day 9 (Post-test compounds administration) or day 12 (7 days post-MPTP), 4 animals/group were sacrificed, different brain regions including striatum and substantia nigra were dissected. Left striatum were used for neurochemical analysis. Other 4 animals/group were perfused and used for TH immunohistological studies.

in vivo = details: male, Sprague Dawley, rat
Description: To investigate the pharmacokinetic profiles of test compound following intravenous bolus administration and oral gavage in male Sprague Dawley rats.

[2] = BBB post-treatment results, concentration in mice brains; type: in vivo, mouse; details: pooled regions
Experimental: as §1, with “Other 4 animals/group were perfused and used for TH immunohistological studies.” left out

[3] = tested on: MPTP-injected C57 black mice; test: MPTP mouse model of Parkinson's disease, oral pre-treatment; type: in vivo; details: for protection against MPTP-induced TH cell loss and dopaminergic degeneration in substantia nigra and striatum: 10 mg/kg and 30 mg/kg oral; for locomotor activities in MPTP-injected mice / striatal dopamine levels in MPTP treated mice: orally administered, pre-treatment
[4] = tested on: Rat hepatoma (H4IIE) cell line; test: In vitro toxicology, general cytotoxicity; type: cell-based
Experimental: Cells were seeded into 96-well plates and cultured in medium containing 20% bovine serum. […] General cytotoxicity was evaluated by monitoring membrane integrity (MBR, cell supernatant), cell mass (PI) and mitochondrial function (cellular ATP levels). Rotenone was included as a positive control because it produces measurable effects in all three assays. DMSO at 0.5% in medium was included as a negative control. Three wells per exposure concentration were used in each assay. Results are summarized in Table 8 and are expressed as percent of control, with control values set at 100%. […] Test compounds 13 and 13 HCl were rank-ordered from most to least toxic based on individual membrane integrity and ATP responses as well as resultant TC50 values.
Test compounds 13 and 13 HCl were rank-ordered from highest to lowest probability of producing toxicity based first on membrane toxicity, then on ATP, and finally on cell mass (PI). It is important to note that within a given grouping compounds may be classified as to their primary effect being either cytotoxic, cytostatic, or reducing mitochondrial function. In general, compound responses above 80% of vehicle control are considered to be low-to-no effect, moderates generally rank 80% to 50% of vehicle control, and those compounds that cross the 50% mark are considered to have higher probability of toxicity.

[5] = tested on: MPTP-injected C57 black mice; test: MPTP mouse model, intravenous pre-treatment; type: in vivo; details: 5 mg/kg i.v.
Experimental: 24 C57 black mice (C57/bl6, 6-8 week old, and 25-30 g) were purchased from Charles River Laboratories, Ohio. […] Prior to treatment animals were pre-trained on rotarod for at least 3 minutes every day for three successive days. Test compound (5 mg/kg) was administered intravenously to group C animals, 24 h prior to MPTP-injection and continued daily for additional 11 days. MPTP was dissolved in PBS and injected intraperitoneally (i.p.) at doses of 25 mg/kg, once daily for 5 days to group B and C animals. Group A animals were injected with saline (i.p.) to be used as controls. Urine and Faeces were collected on Day 8, behavioural studies were performed on Day 9 (4-days post-MPTP). On day 12 (7 days post-MPTP), 4 animals/group were sacrificed, different brains regions including striatum and substantia nigra were dissected. Left striatum were used for neurochemical analysis. Other 4 animals/group were perfused and used for TH immunohistological studies.

[6] = tested on: 299 protein kinases+17 additional preview kinases; test: Protein Kinase Selectivity Profiler; type: biochemical, human; details: LRRK2, LRRK2 G2019S, CHK1, DYRK1A, FLT3, MLK1, TNIK, TRKA; single dose 0.5 μM, 1 μM; 10 μM ATP
Experimental: In vitro profiling of the 317 member kinase panel was performed at Reaction Biology Corporation using the “HotSpot” assay platform. Briefly, specific kinase/substrate pairs along with required cofactors were prepared in reaction buffer; 20 mM Hepes (pH 7.5), 10 mM MgCl2, 1 mM EGTA, 0.02% Brij35, 0.02 mg/ml BSA, 0.1 mM Na3VO4, 2 mM DTT, 1% DMSO. Compounds were delivered into the reaction, followed ˜20 min later by addition of a mixture of ATP (Sigma) and 33P ATP (PerkinElmer) to a final concentration of 10 μM. Reactions were carried out at 25° C. for 120 min, followed by spotting of the reactions onto P81 ion exchange filter paper (Whatman). Unbound phosphate was removed by extensive washing of filters in 0.75% phosphoric acid. […] IC50 values and curve fits were obtained using Prism (GraphPad Software). Kinome tree representations were prepared using Kinome Mapper (http://www.reactionbiology.com/apps/kinome/mapper/Launch Kinome.htm). Specifically for the LRRK2 enzyme the substrate LRRKtide (gene bank and protein access numbers NP_940980.2 Q5S007) and clone aa 970-2527 expressed in baculovirus in insect cells with N-terminal GST tag was employed in the study protocol. In the case of DYRK1A (SEQ ID NO 16) the substrate casein (gene bank and protein access numbers NP_001387 Q13627) full length clone expressed in insect with n-terminal tag was used.
A control compound was tested in 10-dose IC50 mode with 3-fold serial dilution starting at 20 μM. Reactions were carried out at 10 μM ATP. Data pages include raw data, % Enzyme activity (relative to DMSO controls), and curve fits.

DYRK1A = DYRK1A (Homo sapiens (Human), UniProt Q13627); test: In vitro DYRK1A inhibition assay; type: biochemical
recombinant human MAO-A = recombinant human MAO-A (Homo sapiens (Human), UniProt P21397); test: Inhibition of monoamine oxidase MAO-A; type: biochemical; details: kynuramine 50 μM, 25 min at 37° C.
Experimental: (§2) Test compounds (0.01-100 μM) final DMSO concentration 0.1%, were incubated with recombinant human MAO-A (2 μg/mL) or MAO-B (2 μg/mL) in the presence of the probe substrate kynuramine (50 μM) for 25 min at 37° C. […] The reactions were terminated by addition of methanol containing internal standard for analytical quantification. The quenched samples were incubated at 4° C. for 10 min and centrifuged at 4° C. for 10 min. The supernatant was removed and analyzed by LC-MS/MS for the probe metabolite 4-hydroxyquinoline.

LRRK2 = LRRK2 (Homo sapiens (Human), UniProt Q5S007); test: LRRK2 Kinase Assay; type: biochemical; details: 10 μM ATP
How it was run: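 Radiometric filter-binding assay: compound pre-incubated ~20 min with kinase and substrate peptide in 20 mM HEPES pH 7.5, 10 mM MgCl2, 1% DMSO, then 10 μM ATP with 33P-ATP added.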

recombinant human MAO-B = recombinant human MAO-B (Homo sapiens (Human), UniProt P27338); test: Inhibition of monoamine oxidase MAO-B; type: biochemical; details: kynuramine 50 μM, 25 min at 37° C.
Experimental: as §2

LRRK2 G2019S = LRRK2 G2019S (Homo sapiens (Human), UniProt Q5S007, G2019S); test: LRRK2 G2019S Kinase Assay; type: biochemical; details: 10 μM ATP
How it was run: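 Radiometric filter-binding assay: enzyme, substrate peptide and compound were mixed on ice, ATP added, then incubated 20 min at 30° C. Reaction was stopped with phosphoric acid and the peptide captured on filters. Incorporated radioactivity was read by scintillation counting; staurosporine served as reference.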

Chain of LRRK2 (Q5S007 970-2527): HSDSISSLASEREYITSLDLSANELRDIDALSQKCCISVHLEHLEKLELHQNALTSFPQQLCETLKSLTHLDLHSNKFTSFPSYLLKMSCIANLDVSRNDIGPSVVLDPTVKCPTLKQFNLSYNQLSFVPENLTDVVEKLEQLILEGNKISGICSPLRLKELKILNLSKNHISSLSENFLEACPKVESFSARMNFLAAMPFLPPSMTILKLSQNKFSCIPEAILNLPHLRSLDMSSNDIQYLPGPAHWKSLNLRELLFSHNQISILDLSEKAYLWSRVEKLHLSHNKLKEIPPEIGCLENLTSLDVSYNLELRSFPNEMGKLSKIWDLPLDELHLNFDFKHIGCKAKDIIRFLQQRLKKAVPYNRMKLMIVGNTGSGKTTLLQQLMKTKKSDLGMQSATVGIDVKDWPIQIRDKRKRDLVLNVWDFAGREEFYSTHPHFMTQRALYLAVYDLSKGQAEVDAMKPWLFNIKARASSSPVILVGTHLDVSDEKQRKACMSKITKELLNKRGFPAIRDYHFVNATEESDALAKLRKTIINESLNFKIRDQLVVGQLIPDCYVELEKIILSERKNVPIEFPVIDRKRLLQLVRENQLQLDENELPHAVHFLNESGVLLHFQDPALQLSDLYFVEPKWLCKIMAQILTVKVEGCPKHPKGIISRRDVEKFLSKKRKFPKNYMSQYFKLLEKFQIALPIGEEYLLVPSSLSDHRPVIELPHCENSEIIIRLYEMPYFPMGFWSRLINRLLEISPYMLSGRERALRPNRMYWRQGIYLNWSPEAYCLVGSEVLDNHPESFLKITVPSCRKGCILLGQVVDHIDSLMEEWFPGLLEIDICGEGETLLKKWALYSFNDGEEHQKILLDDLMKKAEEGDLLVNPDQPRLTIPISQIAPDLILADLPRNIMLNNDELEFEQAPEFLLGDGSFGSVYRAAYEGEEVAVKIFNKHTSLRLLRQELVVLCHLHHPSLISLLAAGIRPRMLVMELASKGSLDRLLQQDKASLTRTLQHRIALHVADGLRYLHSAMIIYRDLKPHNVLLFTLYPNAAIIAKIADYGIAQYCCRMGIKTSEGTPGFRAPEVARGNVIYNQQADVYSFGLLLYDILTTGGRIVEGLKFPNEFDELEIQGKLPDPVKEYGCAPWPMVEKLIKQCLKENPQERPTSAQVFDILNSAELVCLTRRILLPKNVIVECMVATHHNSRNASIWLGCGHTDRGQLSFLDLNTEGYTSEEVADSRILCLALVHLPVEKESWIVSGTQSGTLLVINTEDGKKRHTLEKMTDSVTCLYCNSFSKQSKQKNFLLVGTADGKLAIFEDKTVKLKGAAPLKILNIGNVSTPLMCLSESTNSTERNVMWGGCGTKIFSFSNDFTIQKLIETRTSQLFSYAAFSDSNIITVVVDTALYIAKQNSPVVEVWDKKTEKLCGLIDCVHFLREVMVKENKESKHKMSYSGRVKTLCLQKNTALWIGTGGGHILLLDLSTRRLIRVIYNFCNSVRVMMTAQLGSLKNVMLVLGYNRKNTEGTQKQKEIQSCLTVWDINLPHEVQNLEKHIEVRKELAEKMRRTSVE
Chain of recombinant human MAO-A (P21397 whole entry): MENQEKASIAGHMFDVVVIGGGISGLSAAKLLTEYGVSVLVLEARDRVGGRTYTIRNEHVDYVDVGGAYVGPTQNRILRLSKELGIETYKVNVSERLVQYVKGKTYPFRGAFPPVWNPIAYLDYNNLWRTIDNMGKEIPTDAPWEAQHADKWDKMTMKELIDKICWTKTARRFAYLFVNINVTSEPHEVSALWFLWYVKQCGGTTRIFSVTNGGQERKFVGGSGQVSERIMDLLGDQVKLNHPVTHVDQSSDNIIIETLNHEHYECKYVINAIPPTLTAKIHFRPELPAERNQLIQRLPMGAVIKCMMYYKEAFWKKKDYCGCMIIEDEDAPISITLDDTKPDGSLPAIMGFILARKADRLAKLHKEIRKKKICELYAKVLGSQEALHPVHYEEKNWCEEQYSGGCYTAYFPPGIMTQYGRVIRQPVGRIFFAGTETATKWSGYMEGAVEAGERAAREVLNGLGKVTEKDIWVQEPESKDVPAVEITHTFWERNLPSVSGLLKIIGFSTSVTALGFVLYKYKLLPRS
Chain of recombinant human MAO-B (P27338 whole entry): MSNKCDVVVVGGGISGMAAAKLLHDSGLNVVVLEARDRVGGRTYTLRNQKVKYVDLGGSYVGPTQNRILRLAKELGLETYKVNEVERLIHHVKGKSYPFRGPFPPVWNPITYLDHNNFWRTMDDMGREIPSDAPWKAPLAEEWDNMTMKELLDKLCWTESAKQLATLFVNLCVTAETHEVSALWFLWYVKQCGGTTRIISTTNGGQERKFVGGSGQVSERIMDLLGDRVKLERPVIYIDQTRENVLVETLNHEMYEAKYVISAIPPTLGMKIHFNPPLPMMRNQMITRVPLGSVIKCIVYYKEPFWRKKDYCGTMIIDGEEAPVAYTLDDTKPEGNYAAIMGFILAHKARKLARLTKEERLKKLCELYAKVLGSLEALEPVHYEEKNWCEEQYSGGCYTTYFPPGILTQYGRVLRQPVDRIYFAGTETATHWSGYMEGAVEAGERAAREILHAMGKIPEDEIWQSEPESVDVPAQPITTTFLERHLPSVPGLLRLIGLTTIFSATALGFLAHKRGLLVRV
Chain of LRRK2 G2019S (Q5S007 970-2527 G2019S): as the sequence (Q5S007 970-2527) above, with G1050S counted along it

Cc1n[nH]c2ncc(-c3cncc(NC4CCN(C)CC4)n3)cc12.Cl [13 HCl, 6-(3-methyl-1H-pyrazolo[3,4-b]pyridin-5-yl)-N-(1-methylpiperidin-4-yl)pyrazin-2-amine hydrochloride]
protection against MPTP-induced histological deficits [1]: significantly protected
protection against MPTP-induced motor-deficits [1]: significantly protected
protection against MPTP-induced neurochemical deficits [1]: not against neurochemical deficits
AUC(0-t) (in vivo; iv, 5 mg/kg): 1020 ng·h/mL
Vd (in vivo; iv, 5 mg/kg): 15.2 L/kg
clearance (in vivo; iv, 5 mg/kg): 123 mL/min/kg
half-life (in vivo; iv, 5 mg/kg): 136 min
AUC(0-t) (in vivo; po, 30 mg/kg): 1040 ng·h/mL
Cmax (in vivo; po, 30 mg/kg): 133 ng/mL
F (in vivo; po, 30 mg/kg): 24%
Tmax (in vivo; po, 30 mg/kg): 6.7 h
solubility (physchem): 50 µM
Calc. Conc. of test compound 13 HCl in Mice Brains ([2]; individual subjects, hydrochloride): 2.92 ng/g and 1.36 ng/g and 2.32 ng/g and 3.09 ng/g and 3.79 ng/g and 2.74 ng/g and 3.03 ng/g and 2.72 ng/g
Calc. Conc. of test compound 13 HCl in Mice Brains, Mean ([2]; mean of subjects): 2.75 ng/g
protection against MPTP-induced TH cell loss and dopaminergic degeneration in substantia nigra and striatum [3]: dose-dependent protection
locomotor activities in MPTP-injected mice [3]: Improve Locomotor Activities
striatal dopamine levels in MPTP treated mice [3]: Restore Striatal Dopamine Levels
ATP TC50 ([4]; rat, 24 h): >50 µM
Cell Mass TC50 ([4]; rat, 24 h): >50 µM
Mem Tox TC50 ([4]; rat, 24 h): >50 µM
ATP % Control ([4]; rat, 24 h, 5 μM): 93%
Cell Mass % Control ([4]; rat, 24 h, 5 μM): 89%
Mem Tox % Control ([4]; rat, 24 h, 5 μM): 93%
ATP % Control ([4]; rat, 24 h, 10 μM): 91%
Cell Mass % Control ([4]; rat, 24 h, 10 μM): 81%
Mem Tox % Control ([4]; rat, 24 h, 10 μM): 91%
ATP % Control ([4]; rat, 24 h, 50 μM): 78%
Cell Mass % Control ([4]; rat, 24 h, 50 μM): 62%
Mem Tox % Control ([4]; rat, 24 h, 50 μM): 90%
protection against MPTP-induced TH neuronal loss in the substantia nigra and in the striatum [5]: Protect Against MPTP-Induced TH Neuronal Loss

C=C(C)[C@H]1Cc2c(ccc3c2O[C@@H]2COc4cc(OC)c(OC)cc4[C@@H]2C3=O)O1 [Rotenone, reference compound]
solubility (physchem): 1 µM (≈ 0.394 µg/mL)
ATP % Control ([4]; 0.001 μM, 24 hrs): 98%
Cell Mass % Control ([4]; 0.001 μM, 24 hrs): 105%
Mem Tox % Control ([4]; 0.001 μM, 24 hrs): 100%
ATP % Control ([4]; 0.1 μM, 24 hrs): 34%
Cell Mass % Control ([4]; 0.1 μM, 24 hrs): 54%
Mem Tox % Control ([4]; 0.1 μM, 24 hrs): 98%
ATP % Control ([4]; 1 μM, 24 hrs): 4%
Cell Mass % Control ([4]; 1 μM, 24 hrs): 25%
Mem Tox % Control ([4]; 1 μM, 24 hrs): 46%
ATP TC50 ([4]; 24 hrs): 0.08 µM
Cell Mass TC50 ([4]; 24 hrs): 0.23 µM
Mem Tox TC50 ([4]; 24 hrs): 0.93 µM

c1cc2cc(-c3cncc(N4CCOCC4)n3)cnc2[nH]1 [Compound 148, 4-(6-(1H-pyrrolo[2,3-b]pyridin-5-yl)pyrazin-2-yl)morpholine]
protection against MPTP-induced histological deficits [1]: significantly protected
protection against MPTP-induced motor-deficits [1]: significantly protected
protection against MPTP-induced neurochemical deficits [1]: not against neurochemical deficits
% enzyme inhibition relative to DMSO controls [6]: 5-15%
pIC50 (DYRK1A): > 6.30
AUC(0-t) (in vivo; iv, 5 mg/kg): 1020 ng·h/mL
Vd (in vivo; iv, 5 mg/kg): 15.2 L/kg
clearance (in vivo; iv, 5 mg/kg): 123 mL/min/kg
half-life (in vivo; iv, 5 mg/kg): 136 min
AUC(0-t) (in vivo; po, 30 mg/kg): 1040 ng·h/mL
Cmax (in vivo; po, 30 mg/kg): 133 ng/mL
F (in vivo; po, 30 mg/kg): 24%
Tmax (in vivo; po, 30 mg/kg): 6.7 h
pIC50 (recombinant human MAO-A): < 4.00
pIC50 (LRRK2): > 6.30
pIC50 (recombinant human MAO-B): 5.06
protection against MPTP-induced TH cell loss and dopaminergic degeneration in substantia nigra and striatum [3]: dose-dependent protection
locomotor activities in MPTP-injected mice [3]: Improve Locomotor Activities
striatal dopamine levels in MPTP treated mice [3]: Restore Striatal Dopamine Levels
pIC50 (LRRK2 G2019S): > 6.30
